Laboratory results as given in the NIST ThermoML archive (doi:10.1016/j.jct.2019.02.025).
± gives the expanded uncertainty stated by the source.

Assays:
[1] = for mass density / kinematic viscosity: 101.33 kPa, Liquid; for mass density: Vibrating tube method; for surface tension liquid-gas / kinematic viscosity: Surface laser light scattering (SLLS)
[2] = refractive index (Na D-line) (dimensionless); conditions: 101.33 kPa, Liquid, Standard Abbe refractometry

CCCCCCCC(=O)OCC [ethyl octanoate]
Conditions | kinematic viscosity [m2/s] | mass density [kg/m3] | refractive index | surface tension liquid-gas [mN/m]
[1], 293.15 K | – | 866.99 ± 1.7 | – | –
[1], 298.15 K | 1.52e-06 ± 5.7e-08 | – | – | 25.38 ± 0.57
[1], 303.15 K | – | 858.27 ± 1.7 | – | –
[1], 313.15 K | – | 849.55 ± 1.7 | – | –
[1], 323.14 K | 1.15e-06 ± 7.1e-08 | – | – | 23.34 ± 0.48
[1], 323.15 K | – | 839.92 ± 1.7 | – | –
[1], 333.15 K | – | 832 ± 1.7 | – | –
[1], 343.15 K | – | 823.46 ± 1.7 | – | –
[1], 348.17 K | 8.92e-07 ± 3.8e-08 | – | – | 21.5 ± 0.32
[1], 353.15 K | – | 814.74 ± 1.6 | – | –
[1], 363.15 K | – | 805.97 ± 1.6 | – | –
[1], 373.15 K | – | 797.16 ± 1.6 | – | –
[1], 373.19 K | 6.88e-07 ± 2.6e-08 | – | – | 19.5 ± 0.33
[1], 383.15 K | – | 788.08 ± 1.6 | – | –
[1], 393.15 K | – | 779.34 ± 1.6 | – | –
[1], 398.2 K | 5.45e-07 ± 2.2e-08 | – | – | 17.44 ± 0.11
[1], 403.15 K | – | 770.31 ± 1.6 | – | –
[1], 413.15 K | – | 761.18 ± 1.5 | – | –
[1], 423.15 K | – | 751.94 ± 1.5 | – | –
[1], 423.18 K | 4.53e-07 ± 1.8e-08 | – | – | 15.36 ± 0.12
[1], 433.15 K | – | 742.64 ± 1.5 | – | –
[1], 443.15 K | – | 733.17 ± 1.5 | – | –
[1], 448.17 K | 3.86e-07 ± 1.7e-08 | – | – | 13.16 ± 0.17
[1], 453.15 K | – | 723.58 ± 1.5 | – | –
[2], 278.15 K | – | – | 1.42461 ± 0.00052 | –
[2], 283.15 K | – | – | 1.42242 ± 0.00052 | –
[2], 288.15 K | – | – | 1.42025 ± 0.00052 | –
[2], 293.15 K | – | – | 1.41807 ± 0.00052 | –
[2], 298.15 K | – | – | 1.41587 ± 0.00052 | –
[2], 303.15 K | – | – | 1.41367 ± 0.00052 | –
[2], 308.15 K | – | – | 1.41148 ± 0.00052 | –
[2], 313.15 K | – | – | 1.40926 ± 0.00052 | –
[2], 318.15 K | – | – | 1.40703 ± 0.00052 | –
[2], 323.15 K | – | – | 1.40481 ± 0.00052 | –
[2], 328.15 K | – | – | 1.40261 ± 0.00052 | –
[2], 333.15 K | – | – | 1.40042 ± 0.00052 | –
[2], 338.15 K | – | – | 1.39823 ± 0.00052 | –
[2], 343.15 K | – | – | 1.39603 ± 0.00052 | –
[2], 348.15 K | – | – | 1.39386 ± 0.00052 | –
[2], 353.15 K | – | – | 1.3917 ± 0.00052 | –
[2], 358.15 K | – | – | 1.38955 ± 0.00052 | –

CCCCCCCCCCCCCC(=O)OCC [ethyl tetradecanoate]
Conditions | kinematic viscosity [m2/s] | mass density [kg/m3] | refractive index | surface tension liquid-gas [mN/m]
[1], 293.15 K | – | 860.8 ± 1.7 | – | –
[1], 303.15 K | – | 853.07 ± 1.7 | – | –
[1], 313.15 K | – | 845.46 ± 1.7 | – | –
[1], 323.14 K | 2.63e-06 ± 8.9e-08 | – | – | 24.08 ± 0.47
[1], 323.15 K | – | 837.86 ± 1.7 | – | –
[1], 333.15 K | – | 830.3 ± 1.7 | – | –
[1], 343.15 K | – | 822.77 ± 1.6 | – | –
[1], 348.16 K | 1.9e-06 ± 7.8e-08 | – | – | 22.25 ± 0.52
[1], 353.15 K | – | 815.26 ± 1.6 | – | –
[1], 363.15 K | – | 807.75 ± 1.6 | – | –
[1], 373.15 K | – | 799.27 ± 1.6 | – | –
[1], 373.22 K | 1.43e-06 ± 7.2e-08 | – | – | 20.56 ± 0.24
[1], 383.15 K | – | 792.77 ± 1.6 | – | –
[1], 393.15 K | – | 785.27 ± 1.6 | – | –
[1], 398.24 K | 1.12e-06 ± 4.3e-08 | – | – | 19.48 ± 0.18
[1], 403.15 K | – | 777.75 ± 1.6 | – | –
[1], 413.15 K | – | 770.21 ± 1.6 | – | –
[1], 423.15 K | – | 762.65 ± 1.5 | – | –
[1], 423.26 K | 8.97e-07 ± 3.2e-08 | – | – | 18.15 ± 0.3
[1], 433.15 K | – | 755.04 ± 1.5 | – | –
[1], 443.15 K | – | 747.42 ± 1.5 | – | –
[1], 448.28 K | 7.25e-07 ± 2.5e-08 | – | – | 16.53 ± 0.1
[1], 453.15 K | – | 739.78 ± 1.5 | – | –
[2], 288.15 K | – | – | 1.43841 ± 0.00049 | –
[2], 293.15 K | – | – | 1.43636 ± 0.00049 | –
[2], 298.15 K | – | – | 1.43432 ± 0.00049 | –
[2], 303.15 K | – | – | 1.4323 ± 0.00049 | –
[2], 308.15 K | – | – | 1.43026 ± 0.00049 | –
[2], 313.15 K | – | – | 1.4282 ± 0.00049 | –
[2], 318.15 K | – | – | 1.42613 ± 0.00049 | –
[2], 323.15 K | – | – | 1.42407 ± 0.00049 | –
[2], 328.15 K | – | – | 1.42205 ± 0.00049 | –
[2], 333.15 K | – | – | 1.42004 ± 0.00049 | –
[2], 338.15 K | – | – | 1.41803 ± 0.00049 | –
[2], 343.15 K | – | – | 1.41603 ± 0.00049 | –
[2], 348.15 K | – | – | 1.41406 ± 0.00049 | –
[2], 353.15 K | – | – | 1.41208 ± 0.00049 | –
[2], 358.15 K | – | – | 1.4101 ± 0.00049 | –
